Measurements: article PMC9161374 (Science Translational Medicine, 2022)
Where “and” joins values, the source holds several entries; their conditions need not be identical. Equal values may be shown once. Read-outs that look alike come from different tables or passages of the source.

Assays:
[1] = system: SARS-CoV-2 replicon system (pBAC-SARS-CoV-2-Replicon-Luc); assay: microbe, parasite or virus in culture; format: cell-based; settings: Severe acute respiratory syndrome coronavirus 2, HEK-293T, 60 h
SARS-CoV-2 (B.1) = assay: Anti-SARS-CoV-2 activity in Vero E6 cells (viral yield by qRT-PCR); format: cell-based
[2] = system: SARS-CoV-2 (Beta, B.1.351); assay: microbe, parasite or virus in culture; format: cell-based; settings: for EC50: read-out: EC50 in Vero E6 cells, SARS-CoV-2 (Beta, B.1.351); for % Inhibition: beta
[3] = system: SARS-CoV-2 (Delta, B.1.617.2); assay: microbe, parasite or virus in culture; format: cell-based; settings: for % Inhibition: delta
[4] = system: SARS-CoV-2 (B.1) in Huh7 cells; assay: Anti-SARS-CoV-2 activity in Huh7 cells (viral yield by qRT-PCR); format: cell-based; settings: B.1, MOI 0.05, 48 h
[5] = CCK-8 cell viability assay; format: cell-based, African green monkey; settings: African green monkey; Vero E6 cells, 48 h, CCK8
Method in brief: (§1)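 Vero E6 cells, 20,000/well, exposed to compound at 0–200 μM (0, 0.01, 0.1, 1, 5, 10, 50, 75, 100, 200 μM) for 48 h; viability read by CCK-8 and expressed as percentage versus drug concentration, mean ± SD.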

Vero E6 cells = assay: CCK-8 cell viability assay; format: cell-based, African green monkey; settings: individual replicate values, Fig.S4
Method in brief: as §1

[6] = Permeability and efflux ratio in Caco-2 cells; format: in vitro ADME; settings: human
Excerpt: ATV019, and ATV020 in Caco-2 cells.
Compound Caco-2 AB/BA (Papp (10-6 cm/s)) a Efflux ratio

[7] = system: SARS-CoV-2 (Omicron, B.1.1.529); settings: Omicon, Vero E6, replicates

In the case of `N#C[C@@]1(c2ccc3c(N)ncnn23)O[C@H](CO)[C@@H](O)[C@H]1O` [GS-441524, reference compound], the EC50 ([1]; read-out: EC50 (Confidence 95%), replicon) is reported as 955 nM, the EC90 ([1]; read-out: EC90 (Confidence 95%), replicon) is reported as 3250 nM and the “% Inhibition” value (SARS-CoV-2 (B.1); 2 μM, replicates, sheet Fig.S3) is reported as 71.478%. The “% Inhibition” value (SARS-CoV-2 (B.1); 5 μM, replicates, sheet Fig.S3) was 85.4877%, the “% Inhibition” value (SARS-CoV-2 (B.1); 10 μM, replicates, sheet Fig.S3) was 86.8803% and the “% Inhibition” value (SARS-CoV-2 (B.1); B.1, 1 uM, Vero E6, replicates, 1 µM) was 3.349%. For the same compound, the “% Inhibition” value (SARS-CoV-2 (B.1); B.1, 2 uM, Vero E6, replicates, 2 µM) was 80.3269%, the “% Inhibition” value (SARS-CoV-2 (B.1); B.1, 5 uM, Vero E6, replicates, 5 µM) was 96.5344% and the “% Inhibition” value (SARS-CoV-2 (B.1); B.1, 10 uM, Vero E6, replicates, 10 µM) was 98.7837%. The “% Inhibition” value (SARS-CoV-2 (B.1); B.1, 50 uM, Vero E6, replicates, 50 µM) was 98.8136%, the inhibition at 0.1 µM (SARS-CoV-2 (B.1); Severe acute respiratory syndrome coronavirus 2, Vero C1008, 0.1 μM, replicates, sheet Fig.S3) was 0% and the inhibition at 0.5 µM (SARS-CoV-2 (B.1); Severe acute respiratory syndrome coronavirus 2, Vero C1008, 0.5 μM, replicates, sheet Fig.S3) was 0%. The inhibition at 1 µM (SARS-CoV-2 (B.1); Severe acute respiratory syndrome coronavirus 2, Vero C1008, 1 μM, replicates, sheet Fig.S3) was 0%, the inhibition at 2 µM (SARS-CoV-2 (B.1); Severe acute respiratory syndrome coronavirus 2, Vero C1008, 2 μM, replicates, sheet Fig.S3) was 72.7% and the inhibition at 5 µM (SARS-CoV-2 (B.1); Severe acute respiratory syndrome coronavirus 2, Vero C1008, 5 μM, replicates, sheet Fig.S3) was 85.9%. It also gave an inhibition at 10 µM (SARS-CoV-2 (B.1); Severe acute respiratory syndrome coronavirus 2, Vero C1008, 10 μM, replicates, sheet Fig.S3) of 90.7%, an inhibition at 0.01 µM (SARS-CoV-2 (B.1); Severe acute respiratory syndrome coronavirus 2, Vero C1008, B.1, 0.01 uM, Vero E6, replicates) of 0% and an inhibition at 0.1 µM (SARS-CoV-2 (B.1); Severe acute respiratory syndrome coronavirus 2, Vero C1008, B.1, 0.1 uM, Vero E6, replicates) of 0%. For the same compound, the inhibition at 0.25 µM (SARS-CoV-2 (B.1); Severe acute respiratory syndrome coronavirus 2, Vero C1008, B.1, 0.25 uM, Vero E6, replicates) was 0%, the inhibition at 0.5 µM (SARS-CoV-2 (B.1); Severe acute respiratory syndrome coronavirus 2, Vero C1008, B.1, 0.5 uM, Vero E6, replicates) was 0% and the inhibition at 2 µM (SARS-CoV-2 (B.1); Severe acute respiratory syndrome coronavirus 2, Vero C1008, B.1, 2 uM, Vero E6, replicates) was 72.6%. For the same compound, the inhibition at 5 µM (SARS-CoV-2 (B.1); Severe acute respiratory syndrome coronavirus 2, Vero C1008, B.1, 5 uM, Vero E6, replicates) was 95.7%, the inhibition at 10 µM (SARS-CoV-2 (B.1); Severe acute respiratory syndrome coronavirus 2, Vero C1008, B.1, 10 uM, Vero E6, replicates) was 98.5% and the inhibition at 50 µM (SARS-CoV-2 (B.1); Severe acute respiratory syndrome coronavirus 2, Vero C1008, B.1, 50 uM, Vero E6, replicates) was 98.7%. The EC90 (SARS-CoV-2 (B.1); Severe acute respiratory syndrome coronavirus 2, Vero C1008, read-out: EC90 (Confidence 95%)) was 2390 nM, the EC50 (SARS-CoV-2 (B.1); Severe acute respiratory syndrome coronavirus 2, Vero C1008, MOI 0.05, 48 h) was 1710 nM and the EC50 ([2]; Severe acute respiratory syndrome coronavirus 2, Vero C1008, 48 h) was 1340 nM. It also gave an inhibition at 0.01 µM ([2]; Severe acute respiratory syndrome coronavirus 2, Vero C1008, beta, 0.01 uM, Vero E6, replicates) of 0%, an inhibition at 0.1 µM ([2]; Severe acute respiratory syndrome coronavirus 2, Vero C1008, beta, 0.1 uM, Vero E6, replicates) of 0% and an inhibition at 0.25 µM ([2]; Severe acute respiratory syndrome coronavirus 2, Vero C1008, beta, 0.25 uM, Vero E6, replicates) of 0%. For the same compound, the inhibition at 0.5 µM ([2]; Severe acute respiratory syndrome coronavirus 2, Vero C1008, beta, 0.5 uM, Vero E6, replicates) was 0%, the inhibition at 1 µM ([2]; Severe acute respiratory syndrome coronavirus 2, Vero C1008, beta, 1 uM, Vero E6, replicates) was 21.8% and the inhibition at 2 µM ([2]; Severe acute respiratory syndrome coronavirus 2, Vero C1008, beta, 2 uM, Vero E6, replicates) was 85.3%. For the same compound, the inhibition at 5 µM ([2]; Severe acute respiratory syndrome coronavirus 2, Vero C1008, beta, 5 uM, Vero E6, replicates) was 99.5%, the inhibition at 10 µM ([2]; Severe acute respiratory syndrome coronavirus 2, Vero C1008, beta, 10 uM, Vero E6, replicates) was 99.9% and the inhibition at 50 µM ([2]; Severe acute respiratory syndrome coronavirus 2, Vero C1008, beta, 50 uM, Vero E6, replicates) was 99.9%. For the same compound, the EC90 ([2]; Severe acute respiratory syndrome coronavirus 2, Vero C1008, read-out: EC90 (Confidence 95%), Vero-E6, Beta B.1.351) was 2320 nM, the “% Inhibition” value ([2]; 1 uM, Vero E6, replicates) was 23.8494% and the “% Inhibition” value ([2]; 2 uM, Vero E6, replicates) was 80.342%. For the same compound, the “% Inhibition” value ([2]; 5 uM, Vero E6, replicates) was 99.4744%, the “% Inhibition” value ([2]; 10 uM, Vero E6, replicates) was 99.9464% and the “% Inhibition” value ([2]; 50 uM, Vero E6, replicates) was 99.9252%. For the same compound, the EC50 [2] was 1350 nM, the EC50 ([3]; Severe acute respiratory syndrome coronavirus 2, Vero C1008, 48 h, read-out: EC50 in Vero E6 cells, SARS-CoV-2 (Delta, B.1.617.2)) was 957 nM and the inhibition at 0.01 µM ([3]; Severe acute respiratory syndrome coronavirus 2, Vero C1008, delta, 0.01 uM, Vero E6, replicates) was 0%. The inhibition at 0.1 µM ([3]; Severe acute respiratory syndrome coronavirus 2, Vero C1008, delta, 0.1 uM, Vero E6, replicates) was 0%, the inhibition at 0.25 µM ([3]; Severe acute respiratory syndrome coronavirus 2, Vero C1008, delta, 0.25 uM, Vero E6, replicates) was 0% and the inhibition at 0.5 µM ([3]; Severe acute respiratory syndrome coronavirus 2, Vero C1008, delta, 0.5 uM, Vero E6, replicates) was 0%. It also gave an inhibition at 2 µM ([3]; Severe acute respiratory syndrome coronavirus 2, Vero C1008, delta, 2 uM, Vero E6, replicates) of 94.9%, an inhibition at 5 µM ([3]; Severe acute respiratory syndrome coronavirus 2, Vero C1008, delta, 5 uM, Vero E6, replicates) of 97% and an inhibition at 10 µM ([3]; Severe acute respiratory syndrome coronavirus 2, Vero C1008, delta, 10 uM, Vero E6, replicates) of 98.7%. For the same compound, the inhibition at 50 µM ([3]; Severe acute respiratory syndrome coronavirus 2, Vero C1008, delta, 50 uM, Vero E6, replicates) was 99.8%, the EC90 ([3]; Severe acute respiratory syndrome coronavirus 2, Vero C1008, read-out: EC90 (Confidence 95%), Vero-E6, Delta B.1.617.2) was 1360 nM and the “% Inhibition” value ([3]; 1 uM, Vero E6, replicates) was 66.6762% and 46.4634%. The “% Inhibition” value ([3]; 2 uM, Vero E6, replicates) was 93.4361%, the “% Inhibition” value ([3]; 5 uM, Vero E6, replicates) was 94.7905% and the “% Inhibition” value ([3]; 10 uM, Vero E6, replicates) was 95.0345%. The “% Inhibition” value ([3]; 50 uM, Vero E6, replicates) was 98.9856%, the EC50 ([4]; Severe acute respiratory syndrome coronavirus 2, Huh-7, read-out: EC50 (Confidence 95%) in Huh7 cells) was 1760 nM and the EC90 ([4]; Severe acute respiratory syndrome coronavirus 2, Huh-7, read-out: EC90 (Confidence 95%) in Huh7 cells) was 2080 nM. The CC50 at 48 h [5] was > 50000 nM, the “cell viability (% of control)” value (Vero E6 cells; 0.1 μM compound, 0.1 µM) was 105.342 % of control and the “cell viability (% of control)” value (Vero E6 cells; 1 μM compound, 1 µM) was 107.061 % of control and 113.737 % of control. For the same compound, the “cell viability (% of control)” value (Vero E6 cells; 2 μM compound, 2 µM) was 117.342 % of control and 112.354 % of control and 107.242 % of control, the “cell viability (% of control)” value (Vero E6 cells; 5 μM compound, 5 µM) was 121.028 % of control and 116.731 % of control and the “cell viability (% of control)” value (Vero E6 cells; 10 μM compound, 10 µM) was 98.5418 % of control and 94.9348 % of control and 94.7813 % of control. For the same compound, the “cell viability (% of control)” value (Vero E6 cells; 20 μM compound, 20 µM) was 98.3543 % of control and 95.3243 % of control and 95.3532 % of control, the “cell viability (% of control)” value (Vero E6 cells; 50 μM compound, 50 µM) was 93.3231 % of control and 94.7045 % of control and 94.3208 % of control and the Papp A→B ([6]; AB) was 1.22 ×10⁻⁶ cm/s. For the same compound, the Papp B→A ([6]; BA) was 1.2 ×10⁻⁶ cm/s, the “% Inhibition” value ([7]; 0.208 uM) was 55.9865% and 27.3736% and 80.8013% and the “% Inhibition” value ([7]; 0.625 uM) was 98.5871% and 97.6862%. For the same compound, the “% Inhibition” value ([7]; 2.5 uM) was 99.9728% and 99.9712%, the “% Inhibition” value ([7]; 5 uM) was 99.9879% and 99.9871% and the “% Inhibition” value ([7]; 10 uM) was 99.9637% and 99.9769%.
